Results from patent US8338565B2, “Macrocyclic compounds for inhibition of tumor necrosis factor alpha” (Ensemble Therapeutics Corporation, priority 2008, dated 2012).
Numbered stars: 1 amine (or outer) side, 2 acyl side, 3 side chain; on linkers, the order of the positions; unused ones are H or OH. Bridge positions count the residues as written; N and C are the ends. Square brackets hold non-standard residues; d marks the D form. Peptide text beside a SMILES is read from it. Bip = N[C@@H](Cc1ccc(-c2ccccc2)cc1)C(=O)O; Phe(4-NH2) = Nc1ccc(C[C@H](N)C(=O)O)cc1; d(hPhe) = N[C@H](CCc1ccccc1)C(=O)O; Suc = O=C(CCC(=O)[*:2])[*:1]

Assays:
[1] = test system: TNF-α (degradation of IkB in HeLa cells or A431 cells); experiment: Human cell-based assay: inhibition of TNF-α induced degradation of IkB; settings: HeLa or A431 cells
rat paw edema model = experiment: Rat paw edema model (carrageenan), anti-inflammatory activity; assay type: in vivo, Sprague-Dawley (SD) rats

Compound: O=C1CCC(=O)N[C@H](CCc2ccccc2)C(=O)N[C@@H](Cc2ccc(-c3ccccc3)cc2)C(=O)N[C@H](Cc2ccccc2)C(=O)N[C@H](C(=O)N[C@@H](Cc2ccccc2)C(=O)O)Cc2ccc(cc2)N1 [Compound 202] ([d(hPhe)][Bip][dF][Phe(4-NH2)]F-OH; linker N-4 via Suc)
- inhibition at 5 µM ([1]; 5 μM compound, read-out: Inhibition at Various Compound Concentrations, 5 μM): 10 to 50%
- inhibition at 10 µM ([1]; 10 μM compound, read-out: Inhibition at Various Compound Concentrations, 10 μM): 50 to 80%
- Change in Paw Volume (rat paw edema model; Table 3, 0.3 mg/kg IV, 2 h post-carrageenan): 0.42 ± 0.20 mL
- Change in Paw Volume (rat paw edema model; Table 3, 0.3 mg/kg IV, 4 h post-carrageenan): 1.01 ± 0.31 mL
- Change in Paw Volume (rat paw edema model; Table 3, 0.3 mg/kg IV, 6 h post-carrageenan): 1.16 ± 0.20 mL
- Change in Paw Volume (rat paw edema model; Table 9, 0.05 mg/kg IV, 2 h post-carrageenan): 1.20 ± 0.09 mL
- Change in Paw Volume (rat paw edema model; Table 9, 0.05 mg/kg IV, 4 h post-carrageenan): 1.56 ± 0.22 mL
- Change in Paw Volume (rat paw edema model; Table 9, 0.05 mg/kg IV, 6 h post-carrageenan): 1.67 ± 0.18 mL
- Change in Paw Volume (rat paw edema model; Table 9, 0.1 mg/kg IV, 2 h post-carrageenan): 0.99 ± 0.15 mL
- Change in Paw Volume (rat paw edema model; Table 9, 0.1 mg/kg IV, 4 h post-carrageenan): 1.41 ± 0.26 mL
- Change in Paw Volume (rat paw edema model; Table 9, 0.1 mg/kg IV, 6 h post-carrageenan): 1.62 ± 0.19 mL
- Change in Paw Volume (rat paw edema model; Table 9, 0.3 mg/kg IV, 2 h post-carrageenan): 0.70 ± 0.13 mL
- Change in Paw Volume (rat paw edema model; Table 9, 0.3 mg/kg IV, 4 h post-carrageenan): 1.09 ± 0.06 mL
- Change in Paw Volume (rat paw edema model; Table 9, 0.3 mg/kg IV, 6 h post-carrageenan): 1.15 ± 0.12 mL
- Change in Paw Volume (rat paw edema model; Table 9, 1.0 mg/kg IV, 2 h post-carrageenan): 0.60 ± 0.04 mL
- Change in Paw Volume (rat paw edema model; Table 9, 1.0 mg/kg IV, 4 h post-carrageenan): 0.98 ± 0.08 mL
- Change in Paw Volume (rat paw edema model; Table 9, 1.0 mg/kg IV, 6 h post-carrageenan): 1.14 ± 0.05 mL
- Change in Paw Volume (rat paw edema model; Table 9, 10 mg/kg PO (suspension in Vehicle A), 2 h post-carrageenan): 1.12 ± 0.15 mL
- Change in Paw Volume (rat paw edema model; Table 9, 10 mg/kg PO (suspension in Vehicle A), 4 h post-carrageenan): 1.35 ± 0.27 mL
- Change in Paw Volume (rat paw edema model; Table 9, 10 mg/kg PO (suspension in Vehicle A), 6 h post-carrageenan): 1.42 ± 0.22 mL
- Change in Paw Volume (rat paw edema model; Table 10, 0.3 mg/kg PO, 2 h post-carrageenan): 1.49 ± 0.14 mL
- Change in Paw Volume (rat paw edema model; Table 10, 0.3 mg/kg PO, 4 h post-carrageenan): 1.59 ± 0013 mL
- Change in Paw Volume (rat paw edema model; Table 10, 0.3 mg/kg PO, 6 h post-carrageenan): 1.65 ± 0.10 mL
- Change in Paw Volume (rat paw edema model; Table 10, 1.0 mg/kg PO, 2 h post-carrageenan): 1.43 ± 0.18 mL
- Change in Paw Volume (rat paw edema model; Table 10, 1.0 mg/kg PO, 4 h post-carrageenan): 1.45 ± 0.16 mL
- Change in Paw Volume (rat paw edema model; Table 10, 1.0 mg/kg PO, 6 h post-carrageenan): 1.62 ± 0.14 mL
- Change in Paw Volume (rat paw edema model; Table 10, 3.0 mg/kg PO, 4 h post-carrageenan): 1.42 ± 0.09 mL
- Change in Paw Volume (rat paw edema model; Table 10, 3.0 mg/kg PO, 6 h post-carrageenan): 1.50 ± 0.09 mL
- Change in Paw Volume (rat paw edema model; Table 10, 10 mg/kg PO, 2 h post-carrageenan): 1.17 ± 0.17 mL
- Change in Paw Volume (rat paw edema model; Table 10, 10 mg/kg PO, 4 h post-carrageenan): 1.29 ± 0.06 mL
- Change in Paw Volume (rat paw edema model; Table 10, 10 mg/kg PO, 6 h post-carrageenan): 1.51 ± 0.06 mL
